# Laboratory results published in patent publication US20190022091A1, “METHOD OF TREATMENT FOR MENTAL DISORDERS” (SUMITOMO DAINIPPON PHARMA CO., LTD., priority 2010, published 2019).
# Where a name gives a salt, the structure may show the parent alone.
# Key:
# [1] = test system: common marmosets; experiment: ORD test (object retrieval with detour test) in marmosets; type: in vivo, common marmoset; conditions: for variation of the correct % of the ORD test (difficult task): single oral administration, test 2 hours after administration vs before, FIG. 2-6
# Procedure: ORD test (object retrieval with detour test) is already reported as a method for evaluating executive function (attention function/impulsiveness) in primates.
# Male and female common marmosets having body weights of 250-450 g were used. Haloperidol, clozapine, olanzapine, risperidone, and lurasidone hydrochloride were separately suspended in 0.5% methylcellulose (MC), and then each suspension was orally administered in a dose of 5 mL/kg to the marmosets. On the other hand, L-745,870 which is a D4 antagonist, and Ro 10-5824 which is a D4 agonist were separately dissolved in saline, and then each solution was intramuscularly administered to the femoris area in a dose of 0.5 mL/kg.
# According to the method described in the literature (Psychopharmacology (2006) 196: 643-648) which was partially modified, the ORD test was carried out as follows (see FIG. 1).
# In each of the boxes, 0.3-0.5 g of Baumkuchen as a food reward is placed at the point of each triangle in FIG. 1. The marmoset can reach out from the cage (shown as dotted line region) to obtain the reward placed in the acrylic box. FIG. 1 is a view from the directly above. Amongst the situations between each direction of the box and each position of the reward, 5 patterns (line of sight, left outside, left inside, right outside, and right inside) are defined as “easy task”, and the other 2 patterns (left deep, and right deep) are defined as “difficult task”. It is recorded as “correct” when the test animal can obtain the reward in one trial, while it is recorded as “incorrect” when the animal can obtain the reward in the second trial or later.
# The ORD test is carried out in the order described in the following table without any interval between each trial, which is referred to as “one series”. The marmoset is made to be trained with the one series once a day.
# The marmosets were trained with the ORD test at least 10 times, and then the trained marmosets were used in the following main test.
# The main ORD test was carried out as follows.
# (1) The ORD test is carried out before administering each test drug (former value). Hereinafter, the ORD test is done in one series containing the 17 trials corresponding to the above-mentioned training.
# (2) Two hours after administering each test drug, the same ORD test is carried out again (latter value). In case of the combined administration, the first drug (lurasidone hydrochloride) is administered; one hour later, the second drug (the D4 antagonist or D agonist) is administered; and then the ORD test is done one hour after the second drug is administered.
# (3) The variation of correct % in the Difficult task is calculated according to the following formula in order to evaluate the effect of each drug. For example, in case that the “correct count” in the before-administration test (former value) is 3 and the “correct count” in the after-administration test (latter value) is 5, the “correct %” is calculated to rise in 25% (=(5-3)/8×100%) based on the fact that the trial count of the difficult task in each series is 8.
# The variation of the correct %={the difference between the both correct counts in the difficult task (latter value−former value)}/8×100
# (4) The amount of Baumkuchen is 0.5 g×17=8.5 g in one series. The marmoset can be tested at most 2 sets per day, i.e. it has been confirmed that the marmoset can take at most 17 g of Baumkuchen per day, but, all the test marmosets cannot be satisfied with 17 g of Baumkuchen.
# (5) In case that a marmoset treated with the drug is used again, the marmoset is given in 2 week-drug-holidays, and before the test it is confirmed that the previous medication will not affect the test.
# (6) 5 to 6 marmosets were used per one test group. When a marmoset (s) suffered from vomiting or cataleptic akinesia induced by the drug and then the ORD test with the marmoset (s) could not be done, the data of the marmoset(s) were excluded. […]
# [2] = target: T1, muscarinic M1 receptors (Homo sapiens, UniProt P11229); conditions: cited from earlier work
# T1 sequence (P11229 1-460): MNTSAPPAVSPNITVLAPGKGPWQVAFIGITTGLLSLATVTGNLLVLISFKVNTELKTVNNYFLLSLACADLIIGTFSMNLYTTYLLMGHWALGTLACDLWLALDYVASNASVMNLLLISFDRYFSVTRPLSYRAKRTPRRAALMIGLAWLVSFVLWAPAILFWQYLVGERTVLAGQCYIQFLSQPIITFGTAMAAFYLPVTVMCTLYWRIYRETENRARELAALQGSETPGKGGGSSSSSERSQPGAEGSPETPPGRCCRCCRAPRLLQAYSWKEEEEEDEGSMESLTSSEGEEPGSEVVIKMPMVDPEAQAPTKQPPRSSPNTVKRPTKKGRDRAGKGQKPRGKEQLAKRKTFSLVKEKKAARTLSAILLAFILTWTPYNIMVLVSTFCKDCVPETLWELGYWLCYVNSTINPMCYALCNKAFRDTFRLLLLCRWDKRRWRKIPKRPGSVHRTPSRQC
# [3] = target: T2, noradrenaline α2c receptors (Homo sapiens, UniProt P18825); conditions: cited from earlier work
# T2 sequence (P18825 1-462): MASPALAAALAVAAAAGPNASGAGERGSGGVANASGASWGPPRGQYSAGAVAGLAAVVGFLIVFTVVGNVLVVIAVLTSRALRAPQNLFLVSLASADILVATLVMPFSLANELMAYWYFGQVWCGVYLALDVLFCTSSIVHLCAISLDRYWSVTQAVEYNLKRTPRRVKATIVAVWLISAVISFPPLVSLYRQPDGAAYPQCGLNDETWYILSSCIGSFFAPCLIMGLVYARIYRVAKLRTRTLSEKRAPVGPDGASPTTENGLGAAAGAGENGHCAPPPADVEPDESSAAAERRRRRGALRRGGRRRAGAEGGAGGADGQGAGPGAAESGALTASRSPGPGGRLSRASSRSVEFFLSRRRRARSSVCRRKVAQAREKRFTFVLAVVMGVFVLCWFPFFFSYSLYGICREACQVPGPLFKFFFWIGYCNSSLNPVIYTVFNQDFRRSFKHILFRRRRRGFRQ
# [4] = target: histamine H1 (Homo sapiens, UniProt P35367); conditions: cited from earlier work
# histamine H1, sequence (P35367 whole entry): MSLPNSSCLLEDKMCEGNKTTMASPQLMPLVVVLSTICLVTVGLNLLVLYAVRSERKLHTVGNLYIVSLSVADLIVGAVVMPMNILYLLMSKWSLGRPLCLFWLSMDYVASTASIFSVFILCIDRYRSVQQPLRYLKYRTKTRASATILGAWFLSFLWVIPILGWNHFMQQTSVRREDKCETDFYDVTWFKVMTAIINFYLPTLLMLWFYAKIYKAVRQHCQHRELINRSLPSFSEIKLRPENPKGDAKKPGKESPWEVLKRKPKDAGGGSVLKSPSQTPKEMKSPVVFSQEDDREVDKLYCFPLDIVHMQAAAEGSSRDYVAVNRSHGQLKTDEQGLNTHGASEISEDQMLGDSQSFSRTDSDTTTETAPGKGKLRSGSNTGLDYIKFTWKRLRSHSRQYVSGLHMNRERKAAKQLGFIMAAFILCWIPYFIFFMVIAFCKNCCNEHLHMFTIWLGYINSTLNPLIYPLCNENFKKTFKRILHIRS
# [5] = target: T3, serotonin 5-HT1A (Homo sapiens, UniProt P08908); conditions: cited from earlier work
# T3 sequence (P08908 1-422): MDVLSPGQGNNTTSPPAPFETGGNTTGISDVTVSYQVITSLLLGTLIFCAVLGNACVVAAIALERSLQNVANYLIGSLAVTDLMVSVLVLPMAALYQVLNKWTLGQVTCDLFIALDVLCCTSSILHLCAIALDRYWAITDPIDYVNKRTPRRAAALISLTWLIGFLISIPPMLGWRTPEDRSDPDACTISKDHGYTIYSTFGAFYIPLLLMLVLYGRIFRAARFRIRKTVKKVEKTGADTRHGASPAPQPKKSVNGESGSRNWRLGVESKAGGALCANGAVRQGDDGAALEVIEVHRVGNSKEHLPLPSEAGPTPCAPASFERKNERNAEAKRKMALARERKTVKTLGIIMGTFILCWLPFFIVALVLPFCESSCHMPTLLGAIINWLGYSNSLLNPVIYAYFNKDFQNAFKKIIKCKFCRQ
# [6] = target: 5-HT2A (Homo sapiens, UniProt P28223); conditions: cited from earlier work
# 5-HT2A, sequence (P28223 whole entry, species assumed): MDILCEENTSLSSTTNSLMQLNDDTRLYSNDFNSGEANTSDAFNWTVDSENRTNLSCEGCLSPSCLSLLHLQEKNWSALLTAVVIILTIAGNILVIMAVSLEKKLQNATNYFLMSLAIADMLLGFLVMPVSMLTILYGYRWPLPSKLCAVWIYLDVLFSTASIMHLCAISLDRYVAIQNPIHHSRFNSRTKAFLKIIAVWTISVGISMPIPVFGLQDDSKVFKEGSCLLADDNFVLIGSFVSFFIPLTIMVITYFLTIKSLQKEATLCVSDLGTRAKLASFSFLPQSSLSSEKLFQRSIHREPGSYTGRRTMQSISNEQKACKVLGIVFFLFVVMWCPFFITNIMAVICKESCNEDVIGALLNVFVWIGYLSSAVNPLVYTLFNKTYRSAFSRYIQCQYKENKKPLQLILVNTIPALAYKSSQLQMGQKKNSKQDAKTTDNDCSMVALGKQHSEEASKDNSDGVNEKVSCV
# [7] = target: 5-HT7 (Homo sapiens, UniProt P34969); conditions: cited from earlier work
# 5-HT7, sequence (P34969 whole entry, species assumed): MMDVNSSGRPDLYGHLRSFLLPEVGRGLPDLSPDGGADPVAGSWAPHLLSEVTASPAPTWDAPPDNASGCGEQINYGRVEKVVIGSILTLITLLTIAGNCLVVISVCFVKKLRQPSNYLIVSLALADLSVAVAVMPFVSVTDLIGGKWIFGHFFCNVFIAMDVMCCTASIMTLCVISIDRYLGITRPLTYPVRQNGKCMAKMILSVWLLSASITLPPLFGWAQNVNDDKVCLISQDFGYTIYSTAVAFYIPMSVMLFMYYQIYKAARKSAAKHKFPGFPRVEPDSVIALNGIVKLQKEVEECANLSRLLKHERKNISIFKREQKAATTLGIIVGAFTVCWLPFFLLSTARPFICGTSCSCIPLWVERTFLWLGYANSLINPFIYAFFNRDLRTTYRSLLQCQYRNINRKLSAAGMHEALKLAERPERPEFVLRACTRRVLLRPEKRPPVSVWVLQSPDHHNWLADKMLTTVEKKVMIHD
# [8] = target: dopamine D2 (Homo sapiens, UniProt P14416); conditions: cited from earlier work
# dopamine D2, sequence (P14416 whole entry): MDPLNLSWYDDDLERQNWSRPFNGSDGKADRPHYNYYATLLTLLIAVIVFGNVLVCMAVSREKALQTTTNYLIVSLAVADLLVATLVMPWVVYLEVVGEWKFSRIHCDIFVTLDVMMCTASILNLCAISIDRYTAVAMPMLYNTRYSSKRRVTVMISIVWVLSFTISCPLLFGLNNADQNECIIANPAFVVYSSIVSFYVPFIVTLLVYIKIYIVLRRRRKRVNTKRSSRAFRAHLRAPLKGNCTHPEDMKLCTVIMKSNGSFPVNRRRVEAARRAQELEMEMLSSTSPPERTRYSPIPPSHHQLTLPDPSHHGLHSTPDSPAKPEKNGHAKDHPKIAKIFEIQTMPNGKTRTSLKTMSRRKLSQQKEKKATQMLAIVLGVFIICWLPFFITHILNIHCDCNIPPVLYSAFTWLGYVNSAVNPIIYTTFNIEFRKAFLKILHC
# [9] = test system: SHRSP rats; experiment: Y-maze test with juvenile SHRSP rats; type: in vivo, rat; conditions: for Total Arm Entries mean ± SE / % of Alternation Behavior mean ± SE: SHRSP; for Total Arm Entries mean ± SE: 8 minute session; for % of Alternation Behavior mean ± SE: 30 minutes before evaluation
# Excerpt: According to the Y-maze test with juvenile stroke-prone spontaneously hypertensive rats (SHRSP), it is possible to evaluate the effect of lurasidone hydrochloride on attention function with spontaneous Alternation Behavior as an index of attention or concentration (Behav Brain Funct. 2005 Jul. 15; 1:9). Moreover, the effects of lurasidone hydrochloride on hyperactivity, which is one of core symptoms in ADHD, can be confirmed by the total number of the Arm Entries in a Y-maze test.
# For the estimation of inattentive behavior, male juvenile SHRSP rats as an ADHD model and WKY rats as a reference (4 weeks old, n=8-10/group) are used. These animals are commercially available from Charles River Laboratories Japan, inc. or Hoshino Laboratory animals, inc. Lurasidone hydrochloride (e.g. 0.01, 0.03, 0.1, 0.3, 1, 3 and 10 mg/kg; produced by Dainippon Sumitomo Pharma Co., Ltd.) is dissolved in 0.5% methylcellulose and 0.2% Tween 80, and is administrated intraperitoneally in a volume of 1 ml/kg, 30 minutes before the evaluation.
# The method of Y-maze test was already reported elsewhere (Behav Pharmacol. 2002 February; 13(1):1-13). The “Arm Entry” means the entry of all four paws into one arm. The “Alternation Behavior”, which is actual alternations, means the consecutive Arm Entries into three different arms. The test is carried out for 8 minutes in one session and the total number that a rat performs the Arm Entry is counted. The “Maximum Alternations” means the total number of the Arm Entries minus two. An index of attention is calculated as a percentage of the Alternation Behavior, as described below.
# A percentage of Alternation Behavior=(the total number of the Alternation Behavior)/(the Maximum Alternations)×100
smiles,measurement,setting,value
"Clc1ccc(N2CCN(Cc3c[nH]c4ncccc34)CC2)cc1 [L-745,870]",correct % of the ORD test,"[1]; L-745,870 3 mg/kg i.m. combined with lurasidone hydrochloride 10 mg/kg p.o., FIG. 7",decreased the correct % which was increased by the administration of lurasidone hydrochloride
same,ORD score,"[1]; single intramuscular administration, 10 mg/kg, FIG. 7",had no effects on the ORD score
"O=C1[C@@H]2[C@H]3CC[C@H](C3)[C@@H]2C(=O)N1C[C@@H]1CCCC[C@H]1CN1CCN(c2nsc3ccccc23)CC1 [Lurasidone, (3aR, 4S, 7R, 7aS)-2-{1(1R,2R)-2-(4-(1,2-benzisothiazol-3-yl)piperazin-1-yl-methyl]cyclohexylmethyl}hexahydro-4,7-methano-2H-isoindole-1,3-dione]",affinity,[2],minimal to no affinity
same,affinity,[3],high affinity
same,affinity,[4],minimal to no affinity
same,affinity,[5],high affinity
same,affinity,[6],high affinity
same,affinity,[7],high affinity
same,affinity,[8],high affinity
"Cc1ncc(CN2CC=C(c3ccccc3)CC2)c(N)n1 [Ro 10-5824, 2-Methyl-5-(4-phenyl-1,2,3,6-tetrahydropyridin-1-yl-methyl)pyrimidine-4-amine]",correct % of the ORD test,"[1]; Ro 10-5824 alone, 0.3 mg/kg i.m.",had no effects on the correct %
same,ORD score,"[1]; single administration i.m., dose series, FIG. 8",increased the ORD score in a dose dependent manner
O=C(CCCN1CCC(O)(c2ccc(Cl)cc2)CC1)c1ccc(F)cc1 [haloperidol],variation of the correct % of the ORD test (difficult task),[1],decreased the correct % of the ORD test in a dose-dependent manner
O=C1[C@@H]2[C@H]3CC[C@H](C3)[C@@H]2C(=O)N1C[C@@H]1CCCC[C@H]1CN1CCN(c2nsc3ccccc23)CC1 [lurasidone hydrochloride],ORD score,"[1]; lurasidone hydrochloride 3 mg/kg p.o. combined with Ro 10-5824 0.3 mg/kg i.m., FIG. 8",the ORD score was significantly increased
same,correct % of the ORD test,"[1]; lurasidone hydrochloride alone, 3 mg/kg p.o.",had no effects on the correct %
same,variation of the correct % of the ORD test (difficult task),[1],increased the correct % of the ORD test in a dose-dependent manner
same,Total Arm Entries mean ± SE,[9]; 0.1 mg/kg i.p.,24 ± 1
same,% of Alternation Behavior mean ± SE,[9]; 0.1 mg/kg i.p.,70 ± 5%
same,Total Arm Entries mean ± SE,"[9]; 0.3 mg/kg i.p., P < 0.05",22 ± 2
same,% of Alternation Behavior mean ± SE,"[9]; 0.3 mg/kg i.p., P < 0.05",75 ± 2 %
same,Total Arm Entries mean ± SE,"[9]; 1.0 mg/kg i.p., P < 0.05",21 ± 1
same,% of Alternation Behavior mean ± SE,[9]; 1.0 mg/kg i.p.,72 ± 2%
same,Alternation Behavior (in words),"[9]; SHRSP, 0.1, 0.3 or 1.0 mg/kg, significant at 0.3 mg/kg (p=0.0124)",the Alternation Behavior was improved
same,number of total Arm Entries (in words),"[9]; SHRSP, 0.1, 0.3 or 1.0 mg/kg, significant at 0.3 (p=0.0096) and 1 (p=0.0047) mg/kg",showed the decreased number of total Arm Entries
Cc1nc2n(c(=O)c1CCN1CCC(c3noc4cc(F)ccc34)CC1)CCCC2 [risperidone],variation of the correct % of the ORD test (difficult task),[1],decreased the correct % of the ORD test in a dose-dependent manner
